The values below come from patent publication US20140011811A1, “MYOSIN BINDING PROTEIN-C FOR USE IN METHODS RELATING TO DIASTOLIC HEART FAILURE” (The United States Government as represented by the …, priority 2011, published 2014).

In one assay the test system is DOCA-salt mice. Briefly: Echocardiography (mitral pulse wave Doppler flow and tissue Doppler imaging) in DOCA-salt mouse model of diastolic dysfunction. Particulars: DOCA-salt+BH4 mice, BH4 supplemental diet 5 mg BH4/day, postoperative day 11 to 18, echocardiography day 18. The class given is in vivo. On the procedure:
Previously, we have shown that the DOCA-salt mouse model leads to mild hypertension, NOS uncoupling, myocardial oxidative stress, and diastolic dysfunction. A gradual and mild elevation in blood pressure was induced by unilateral nephrectomy, subcutaneous implantation of a controlled release deoxycorticosterone acetate (DOCA) pellet (0.7 mg/d; Innovative Research of America, Sarasota, Fla.), and substituting drinking water with 1.05% saline. Control animals underwent a sham operation, had placebo pellet implantation, and received water without salt.
Mice were divided into two groups which received a control diet (sham N=7; DOCA-salt N=10) and two groups which received a BH4 supplemental diet of 5 mg BH4/day (Research Diets Inc, New Brunswick, N.J.; sham+BH4 N=8; DOCA-salt+BH4 N=8). The supplemental diet began on day 11 after surgery, and continued until day 18, when the mice were analyzed and sacrificed.
Ten days after surgery, we employed echocardiography to characterize the diastolic dysfunction. […] The images for each mouse were recorded for at least 5 s (30-40 cardiac cycles) from which three to five representative cycles with the highest quality imaging were selected. Percent fractional shortenin (% FS) were calculated as 100×(LVEDd)-(LVESd)/(LVEDd) and percent LV ejection fraction (%EF) was calculated as 100×[(7/2.4+LVEDd)×LEDd^3]−[(7/2.4+LVESd)×LVESd^3]/[(7/2.4+LVEDd)×LEDd^3]. […]

The subject of assay [1] is myosin binding protein C (MyBP-C). In words: Western immunoblotting of S-glutathionylation of MyBP-C in cardiac myofilaments from treated DOCA-salt and sham mice. Particulars: chronic ranolazine diet (~1 g/day tablet with 5 mg ranolazine and 0.3 mg P450 inhibitor), postoperative day 11 to 18. The format is in vivo, mouse.
Method: Chronic Administration of Ranolazine: A special diet contained 5 mg ranolazine, 0.3 mg P450 inhibitor, and 0.25 mg red food color was pressed into a 1-g nutritionally complete grain-based tablet (Harlan, Madison, Wis.). The control diet contained 0.3mg P450 inhibitor and 0.25 mg yellow food color pressed into the same type of 1-g tablets. DOCA-salt and sham mice consumed daily ˜1g of the special diet from postoperative day 11 to 18. Western blot analysis was used to detect for glutathionylated proteins. […] Using the protein concentration determined from an RC-DC (Bio-Rad) assay, 40 μg of total protein was applied to 1D 12% resolving SDS-PAGE gel and transferred onto a 0.2 μM Polyvinylidene fluoride (PVDF) membrane. […] Anti-glutathione mouse monoclonal primary antibody (Virogen, Watertown, Mass.) was used at 1:1000 dilution along with anti-mouse HRP-conjugated secondary antibody (Sigma) at 1:100,000 dilution to detect for S-glutathionylation.10 Optical density of the bands was measured with ImageQuant TL (GE Healthcare) and exported to Excel for further analysis. […] Using the protein concentration determined from an RC-DC (Bio-Rad) assay, 40 µg of total protein was applied to a 12% SDS-PAGE gel and transferred onto a 0.2 pm PVDF membrane. […] Optical density of the bands was measured with ImageQuant TL (GE Healthcare) and exported to Excel for further analysis. […]
The next assay has as its system MyBP-C. In words: Pro-Q Diamond gel stain of phosphorylation of MyBP-C in myofibrils from treated DOCA-salt and sham mice. The class given is in vivo, mouse. Particulars: DOCA-salt or sham mice treated as in Examples 1 and 2. On the procedure:
DOCA-salt or sham mice were administered ranolazine or BH4 as essentially described in Examples 1 and 2, respectively. Pro-Q Diamond (Invitrogen) gel stain was used to detect changes in phosphorylation states of MyBP-C. Myofibrils were prepared from DOCA-salt and sham models of the mice hearts, and pellets were solubilized in a non-reducing 2× laemmli buffer (4% SDS, 20% glycerol, 0.004% bromophenol blue, and 0.125 M Tris HCl pH 6.8). 25 mM N-ethylmaleimide (NEM) was added to the standard rigor buffer with Triton X-100, the standard rigor wash buffer, and the 2× Laemmli buffer. An RC-DC assay (BioRad) was used to determine protein concentrations. Samples were diluted at 1:1 ratio in reducing sample buffer (8 M urea, 2 M thiourea, 0.05 M tris pH 6.8, 75 mM DTT, 3% SDS, and 0.05% bromophenol blue and approximately 10 μg of protein was loaded on to a 12% resolving 1D SDS-PAGE gel. The gels were stained and destained with Pro-Q Diamond according to the manufacturer's recommendations prior to the imaging with a Typhoon 9410 scanner (GE Healthcare). Coomassie R-250 staining was used to normalize protein load to both actin and the whole lane. Optical density of the proteins was determined using ImageQuant TL (GE Healthcare) software and results were exported to Excel for further analysis.

SMILES strings stand for the structures.

`C[C@H](O)[C@H](O)[C@H]1CNc2nc(N)[nH]c(=O)c2N1` [BH4, tetrahydrobiopterin]: the “ratio of E′A′ (mitral tissue Doppler E′/A′)” value in the assay with DOCA-salt mice (vs. DOCA-salt 0.74±0.05, P<0.001) came to 1.12±1.10. In addition, the “E/E′ ratio, a measure of left atrial pressure” value in the assay with DOCA-salt mice (vs. DOCA-salt 43.7±2.7, P<0.01) came to 34.5±2.2.
As for `COc1ccccc1OCC(O)CN1CCN(CC(=O)Nc2c(C)cccc2C)CC1` (stereo not shown) [ranolazine], in assay [1], the MyBP-C glutathionylation entry is listed as “regressed level”. In addition, the “phosphorylation levels of MyBP-C” value in the assay on MyBP-C is on record as “did not affect”.
